“Also recorded” adds a separate entry of the source.
Assays:
[1] = tested on: Salmonella typhimurium (TA98, TA100, TA1535 and TA1537); test: Bacterial mutation test in Salmonella typhimurium; type: cell-based; settings: up to 5000 μg/plate, absence and presence of rat liver S-9
Protocol: These conditions included treatments at concentrations up to 5000 μg/plate (the maximum recommended concentration according to current regulatory guidelines), in the absence and in the presence of a rat liver metabolic activation system (S-9).

[2] = Pharmacokinetics of 5-MeO-DMT and bufotenine after inhalation; type: in vivo, human; settings: 3 hours after inhalation, whole dose range (6 mg, 12 mg, 18 mg)
Protocol: Blood samples were obtained at 1; 2; 4; 7; 10; 15; 20; 30; 45 min and 1; 1.5; 2; 3; 4 hours after administration. […] PK parameters were generated by algebraic analysis of the concentration versus time plots for each individual. The analysis was carried out using the software Phoenix WinNonlin 6.3.

[3] = tested on: patients with postpartum depression (PPD); test: Clinical trial of inhaled 5-MeO-DMT in postpartum depression; settings: one PPD patient
Protocol: The single-arm, open-label clinical trial will involve 15 adult female patients with clinically diagnosed postpartum depression (PPD).
The second dose (12 mg) will only be administered if: • a. A peak experience (total score of • 75) has not been achieved following the 6 mg dose, and • b. The 6 mg dose was safe and well-tolerated according to the investigator, • c. Any psychoactive effects (PsE) of the prior dose have subsided, and • d. Pre-dose vital parameters and forced expiratory volume in one second (FEV1) are in normal range, or if outside of the normal range, are not clinically significant according to the investigator. • 3. Similarly, a third dose (18 mg) will only be administered if: • a. A peak experience (total score of • 75) has not been achieved following the 12 mg dose, and • b. The 12 mg dose was safe and well-tolerated according to the investigator, and • c. Any PsE of the prior dose have subsided, and • d. Pre-dose vital parameters and forced expiratory volume in one second (FEV1) are in normal range, or if outside of the normal range, are not clinically significant according to the investigator.
The patients will be assessed for a peak psychedelic experience (based on a patient-scored visual analogue scale, the PE scale), sedation, and other endpoints after dosing.
Follow-up visits are planned for Day 1, and Day 7 after the dosing day.
The following criteria must be met by all patients considered for clinical trial participation: • 1. Is female and in the age range between 18 and 45 years (inclusive) at screening. • 2. Has a body mass index (BMI) in the range of 18.5 and 35 kg/m^2 (inclusive) at screening. • 3. Meets the trial criteria for PPD as assessed by a trial psychiatrist or registered psychologist: • a. Diagnosis of Major Depressive Disorder without psychotic features, confirmed by the Mini-International Neuropsychiatric Interview (MINI), with peri-partum onset that began no earlier than gestation and no later than the first 4 weeks postpartum. • b. Has a Montgomery-Asberg Depression Rating Scale (MADRS) total score of equal to or greater than 28 at screening and pre-dose on Day 0. • 6. […] Patients must have a negative pregnancy test at screening and on the pre-test day (Day −1). • 5. Is willing to delay start of other antidepressant or anxiety medication until after the end of the trial at Day 7 and agrees to keep any psychotherapy unchanged during the trial.
A potential patient who meets any of the following key exclusion criteria will be excluded from participation in this trial: • 1. Has, based on history, psychiatric assessment, and evaluation of the MINI, a current or prior diagnosis of bipolar disorder, a manic or hypomanic episode, a psychotic disorder, Major Depressive Disorder (MDD) or other mood disorder with psychotic features, obsessive compulsive disorder, post-traumatic stress disorder (PTSD), autism spectrum disorder, borderline personality disorder, schizophrenia, delusional disorder, paranoid personality disorder, schizoaffective disorder, clinically significant intellectual disability, or any other psychiatric comorbidity that renders the patient unsuitable for the trial according to the investigator's judgment. • 2. Has one or more first or second degree relatives with a current or previously diagnosed bipolar disorder, psychotic disorder or other mood disorder (including MDD) with psychotic features. • 3. Is in the judgement of a trial psychiatrist or registered psychologist, at significant risk for suicide based on history, psychiatric assessment, and evaluation of suicidal ideation and suicidal behaviour based on the Columbia-Suicide Severity Rating Scale (C-SSRS). • 4. Has taken anti-depressive medication within 14 days or 5 half-lives (whichever is longer) prior to dosing (exception: within the last 5 weeks in the case of fluoxetine). • 5.

COc1ccc2[nH]cc(CCN(C)C)c2c1 [5-MeO-DMT]
Mutation induction [1]: did not induce mutation | Detectability in the plasma [2]: no longer detectable | ECG (3 hours), safety laboratory analyses (7 days), CADSS (3 hours, 1 day, 7 days) [3]: unremarkable | MADRS remission (MADRS total score equal or less than 10) [3]: fulfilled | MADRS response (at least 50% improvement from baseline) [3]: fulfilled | Reported adverse events (cramping left abdominal pain and headache, Day 0) [3]: mild, short-lasting and resolved spontaneously | Total MADRS improvement ([3]; 2 hr, baseline 29): 24 | Total MADRS score ([3]; 2 hr, baseline 29): 5 | MADRS Lassitude score ([3]; Day 1, baseline 3): 0 | BPRS Tension improvement ([3]; Day 1, baseline 6): 5 | Total MADRS improvement ([3]; Day 1, baseline 29): 29 | Total MADRS score ([3]; Day 1, baseline 29): 0 | BIMF item 16 (I worry about how other people judge me (as a mother)) score ([3]; Day 7, Day 0 score 3): 5 | BIMF item 10 (I trust my own feelings (instincts) when taking care of my baby) score ([3]; Day 7, Day 0 score 5): 6 | BIMF functional domain Adjustment score ([3]; Day 7, Day 0 score 5, maximum possible 12): 6 | BIMF functional domain Self Care score ([3]; Day 7, Day 0 score 9, maximum possible 18): 13 | BIMF functional domain Infant Care score ([3]; Day 7, Day 0 score 12, maximum possible 12): 12 | BIMF functional domain Mother-Child Interaction score ([3]; Day 7, Day 0 score 15, maximum possible 18): 17 | BIMF functional domain Social Support score ([3]; Day 7, Day 0 score 17, maximum possible 18): 18 | BIMF functional domain Management score ([3]; Day 7, Day 0 score 28, maximum possible 36): 33 | BIMF functional domain Psychological Well-being score ([3]; Day 7, Day 0 score 44, maximum possible 60): 53 | Total MADRS improvement ([3]; Day 7, baseline 29): 28 | Total MADRS score ([3]; Day 7, baseline 29): 1 | BIMF total score percentage improvement ([3]; Day 7, from 92 to 105 (possible total 120)): 14% | BIMF TOTAL Δ (Day 7) ([3]; Day 7 vs Day 0): 13 | BIMF functional domain Adjustment % improvement ([3]; Day 7 vs Day 0): 20.00% | BIMF functional domain Infant Care % improvement ([3]; Day 7 vs Day 0): 0.00% | BIMF functional domain Management % improvement ([3]; Day 7 vs Day 0): 18% | BIMF functional domain Self Care % improvement ([3]; Day 7 vs Day 0): 44% | Time to clinical remission after administration ([3]; IDR): ≤ 2 h | Tolerability of inhaled 5-MeO-DMT ([3]; IDR 6 mg then 12 mg): well tolerated with no inhalation-related adverse events; also recorded: well tolerated | BPRS Tension improvement ([3]; discharge, baseline 6): 5 | Changes in vital parameters ([3]; shortly after administration): temporary, clinically non-relevant increase in heart rate and blood pressure

From patent publication US20250241893A1, “TREATMENT OF COGNITIVE DYSFUNCTION” (GH RESEARCH IRELAND LIMITED, priority 2022, published 2025)
